In patent US20260199350A1, “FLAVONES, QUINOLINONES, QUINAZOLINONES, AND AURONES, AND USES IN CK2-MEDIATED DISEASES” (Salk Institute for Biological Studies, priority 2022, published 2026):
Read-outs that look alike come from different tables or passages of the source.

Tests used:
IL-6 secretion = IL-6 secretion assay in astrocytes (Promega Lumit IL-6 kit); type: cell-based, human; settings: Homo sapiens, Astrocyte; astrocytes stimulated with IL1-β, after 5 hours; read-out: IC50, secretion of IL-6
Procedure: IL-6 secretion assay. HCAs were plated at 20,000 cells per well in white clear bottom 96-well plates. Two to three days later, media was removed and replaced with media containing 10 ng/mL IL1B and compound dilution series. Five hours later, plates were processed using the Lumit IL-6 Assay Kit (Promega W6030) according to the manufacturer's instructions.
• ^1Radiometric kinase assay from Eurofins. Performed in astrocytes with a Promega Lumit IL-6 kit. A series of halogenated flavones was generated and assayed (Table 3).

CK2A1 = biological target: T1, CK2A1 (Homo sapiens, UniProt P68400); assay: Radiometric kinase assay (Eurofins), CK2A1; type: biochemical; settings: read-out: CK2A1 RAD IC50
T1 construct: purchased Eurofins
Text: FIGS. 4A-4F characterize flavones for in vitro and in-cell CK2 inhibition. […] Representative of two independent experiments. […] Nonlinear fit was used to calculate IC50. […] Nonlinear fit was used to calculate IC50. […] Nonlinear fit was used to calculate IC50. […] Normalized to DMSO, data are representative of three independent experiments.
(§1) • ^1Radiometric kinase assay from Eurofins. Performed in astrocytes with a Promega Lumit IL-6 kit.

CK2A2 = biological target: T2, CK2A2 (Homo sapiens, UniProt P19784); assay: Radiometric kinase assay (Eurofins), CK2A2; type: biochemical; settings: read-out: CK2A2 RAD IC50
T2 construct: purchased Eurofins
Text: as §1

T2 sequence (P19784 whole entry): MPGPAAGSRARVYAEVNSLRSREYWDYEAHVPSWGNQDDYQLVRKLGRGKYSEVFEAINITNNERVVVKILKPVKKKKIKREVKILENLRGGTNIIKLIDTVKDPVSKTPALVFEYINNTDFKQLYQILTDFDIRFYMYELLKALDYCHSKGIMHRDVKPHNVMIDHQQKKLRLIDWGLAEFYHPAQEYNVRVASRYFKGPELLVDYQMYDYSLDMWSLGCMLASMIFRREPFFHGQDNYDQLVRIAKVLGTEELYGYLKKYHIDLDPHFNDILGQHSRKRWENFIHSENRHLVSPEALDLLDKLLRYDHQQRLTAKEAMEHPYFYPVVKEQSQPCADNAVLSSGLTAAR
T1 sequence (P68400 whole entry): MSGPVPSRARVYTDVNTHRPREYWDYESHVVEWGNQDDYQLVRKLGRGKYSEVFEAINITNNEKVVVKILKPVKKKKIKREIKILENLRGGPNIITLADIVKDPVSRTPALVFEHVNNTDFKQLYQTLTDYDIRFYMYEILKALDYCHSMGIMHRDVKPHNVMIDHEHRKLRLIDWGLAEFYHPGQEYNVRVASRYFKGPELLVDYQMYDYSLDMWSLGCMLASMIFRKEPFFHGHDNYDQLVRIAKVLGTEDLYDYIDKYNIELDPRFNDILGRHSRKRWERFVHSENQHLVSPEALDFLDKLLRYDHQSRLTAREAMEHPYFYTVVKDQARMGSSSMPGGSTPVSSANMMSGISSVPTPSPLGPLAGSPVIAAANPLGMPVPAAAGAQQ

Row | Structure (SMILES) | IC50 (CK2A1; Table 5) [µM] | IC50 (CK2A2; Table 5) [µM] | IC50 (CK2A1; Table 12) [µM] | IC50 (CK2A2; Table 12) [µM] | also measured
1 | O=C(O)c1ccc2c(c1)nc(Nc1cccc(Cl)c1)c1ccncc12 [CX-4945, silmitasertib, reference compound] |  |  |  |  | IC50 (IL-6 secretion): 0.315 µM
2 | O=c1[nH]c(-c2ccc(O)c(Cl)n2)nc2c(Cl)cc(Cl)cc12 [Compound 963A] |  |  |  |  | IC50 (CK2A1; Table 9): 0.176 µM; IC50 (CK2A2; Table 9): 0.062 µM
3 | O=c1[nH]c(-c2ccc(O)c(Cl)n2)nc2c(Br)cccc12 [Compound 964A] |  |  |  |  | IC50 (CK2A1; Table 9): 0.155 µM; IC50 (CK2A2; Table 9): 0.137 µM
4 | O=c1cc(-c2ccc(O)c(O)c2)oc2c(Br)cc(Br)cc12 [Compound 1004A] | 0.845 | 0.803 |  |  | 
5 | O=c1[nH]c(-c2cc(Br)c(O)cn2)nc2c(Br)cc(Br)cc12 [Compound 1005A] |  |  |  |  | IC50 (CK2A1; Table 9): 0.094 µM; IC50 (CK2A2; Table 9): 0.053 µM
6 | O=c1[nH]c(-c2cc(Br)c(O)cn2)nc2c(Cl)cc(Cl)cc12 [Compound 1006A] |  |  |  |  | IC50 (CK2A1; Table 9): 0.182 µM; IC50 (CK2A2; Table 9): 0.085 µM
7 | O=c1[nH]c(-c2cc(Br)c(O)cn2)nc2c(Br)cccc12 [Compound 1007A] |  |  |  |  | IC50 (CK2A1; Table 9): 0.38 µM; IC50 (CK2A2; Table 9): 0.327 µM
8 | COc1cc(-c2cc(=O)c3cc(Br)c(OC)c(Br)c3o2)ncc1O [Compound 1040A] | 0.052 | 0.029 |  |  | 
9 | COc1nc(-c2cc(=O)c3cc(Br)c(OC)c(Br)c3o2)ccc1O [Compound 1041A] | 1.89 | 1.74 |  |  | 
10 | COc1cc2oc(-c3ccc(O)c(OC)n3)cc(=O)c2cc1Br [Compound 1058A] | 2.73 | 1.18 |  |  | 
11 | COc1ccc2c(=O)cc(-c3ccc(O)c(OC)n3)oc2c1Br [Compound 1059A] | 0.185 | 0.251 |  |  | 
12 | COc1cc(-c2cc(=O)c3cc(Br)c(OC)cc3o2)ncc1O [Compound 1063B] | 0.203 | 0.445 |  |  | 
13 | COc1nc(-c2cc(=O)c3cc(Br)ccc3o2)ccc1O [Compound 1064A] | 0.124 | 0.167 |  |  | 
14 | COc1cc(-c2cc(=O)c3cc(Br)ccc3o2)ncc1O [Compound 1065A] | 0.401 | 0.364 |  |  | 
15 | O=c1cc(-c2cc(Br)c(O)cn2)[nH]c2c(Br)cc(Br)cc12 [Compound 1066A] |  |  |  |  | IC50 (CK2A1; Table 7): 2.7 µM; IC50 (CK2A2; Table 7): 1.29 µM
16 | COc1cc(-c2cc(=O)c3cc(Br)cc(Br)c3[nH]2)ncc1O [Compound 1077A] |  |  |  |  | IC50 (CK2A1; Table 7): > 5 µM; IC50 (CK2A2; Table 7): > 5 µM

Row | Structure (SMILES) | IC50 (CK2A1; Table 5) [µM] | IC50 (CK2A2; Table 5) [µM] | IC50 (CK2A1; Table 12) [µM] | IC50 (CK2A2; Table 12) [µM] | also measured
17 | O=c1cc(-c2ccc(O)c(C(F)(F)F)c2)[nH]c2c(Br)cc(Br)cc12 [Compound 1095B] |  |  |  |  | IC50 (CK2A1; Table 7): 0.488 µM; IC50 (CK2A2; Table 7): 0.699 µM
18 | O=c1cc(-c2ccc(O)c(Cl)c2)[nH]c2c(Br)cc(Br)cc12 [Compound 1103A] |  |  |  |  | IC50 (CK2A1; Table 7): 0.141 µM; IC50 (CK2A2; Table 7): 0.071 µM
19 | O=C1/C(=C/c2ccc(O)c(C3CC3)c2)Oc2c(Br)cc(Br)cc21 [Compound 1131A] |  |  | > 5 | > 5 | 
20 | O=c1cc(-c2ccc(O)c(C3CC3)c2)oc2c(Br)cc(Br)cc12 [Compound 1132A] | > 5 | > 5 |  |  | 
21 | COc1c(Br)cc2c(c1Br)O/C(=C\c1ccc(O)c(C3CC3)c1)C2=O [Compound 1134A] |  |  | > 5 | > 5 | 
22 | COc1ccc2c(c1Br)O/C(=C\c1ccc(O)c(C3CC3)c1)C2=O [Compound 1135B] |  |  | > 5 | > 5 | 
23 | COc1c(Br)cc2c(=O)cc(-c3ccc(O)c(C4CC4)c3)oc2c1Br [Compound 1140A] | > 5 | > 5 |  |  | 
24 | O=c1cc(-c2ccc(O)c(C3CC3)c2)oc2c(Br)cccc12 [Compound 1141A] | > 5 | 4.25 |  |  | 
25 | COc1ccc2c(=O)cc(-c3ccc(O)c(C4CC4)c3)oc2c1Br [Compound 1142A] | 2.79 | 2.23 |  |  | 
26 | O=C1/C(=C/c2ccc(O)cn2)Oc2c(Br)cc(Br)cc21 [Compound 1143A] |  |  | > 5 | > 5 | 
27 | COc1nc(/C=C2\Oc3c(Br)cc(Br)cc3C2=O)ccc1O [Compound 1150A] |  |  | 0.178 | 0.109 | 
28 | COc1nc(/C=C2\Oc3c(cc(Br)c(OC)c3Br)C2=O)ccc1O [Compound 1159A] |  |  | 1.02 | 0.59 | 
29 | COc1cc(/C=C2\Oc3c(Br)cc(Br)cc3C2=O)ncc1O [Compound 1163A] |  |  | 0.045 | 0.403 | 
30 | COc1cc(/C=C2\Oc3c(cc(Br)c(OC)c3Br)C2=O)ncc1O [Compound 1164A] |  |  | 0.12 | 0.331 | 
31 | O=C1/C(=C/c2cc(Br)c(O)cn2)Oc2c(Br)cc(Br)cc21 [Compound 1173A] |  |  | 0.06 | 0.03 | 
32 | COc1c(Br)cc2c(c1Br)O/C(=C\c1cc(Br)c(O)cn1)C2=O [Compound 1174A] |  |  | 0.086 | 0.027 | 
